# According to PubChem BioAssay (NCI):
#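 Dose response: 5 concentrations. Exposure: 48 h. Format: 96-well plates. Endpoint: linear interpolation; highest concentration if not reached. TGI marks complete inhibition of growth.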
# What was measured:
# Experiment in all cases: growth of human tumour cells (NCI), 48 h
# 786-0 renal = tested on: 786-0 renal
# A549 NSCLC = tested on: A549 NSCLC
# ACHN renal = tested on: ACHN renal
# CAKI-1 renal = tested on: CAKI-1 renal
# COLO 205 colon = tested on: COLO 205 colon
# DLD-1 colon = tested on: DLD-1 colon
# DMS 273 small cell lung = tested on: DMS 273 small cell lung
# HCC-2998 colon = tested on: HCC-2998 colon
# HCT-116 colon = tested on: HCT-116 colon
# HCT-15 colon = tested on: HCT-15 colon
# HL-60(TB) leukemia = tested on: HL-60(TB) leukemia
# HOP-62 NSCLC = tested on: HOP-62 NSCLC
# HOP-92 NSCLC = tested on: HOP-92 NSCLC
# HT29 colon = tested on: HT29 colon
# IGROV1 ovarian = tested on: IGROV1 ovarian
# K-562 leukemia = tested on: K-562 leukemia
# KM12 colon = tested on: KM12 colon
# KM20L2 colon = tested on: KM20L2 colon
# LOX IMVI melanoma = tested on: LOX IMVI melanoma
# LXFL 529 NSCLC = tested on: LXFL 529 NSCLC
# M14 melanoma = tested on: M14 melanoma
# M19-MEL melanoma = tested on: M19-MEL melanoma
# MALME-3M melanoma = tested on: MALME-3M melanoma
# MOLT-4 leukemia = tested on: MOLT-4 leukemia
# NCI-H226 lung = tested on: NCI-H226 lung
# NCI-H23 lung = tested on: NCI-H23 lung
# NCI-H460 lung = tested on: NCI-H460 lung
# NCI-H522 lung = tested on: NCI-H522 lung
# OVCAR-3 ovarian = tested on: OVCAR-3 ovarian
# OVCAR-4 ovarian = tested on: OVCAR-4 ovarian
# OVCAR-5 ovarian = tested on: OVCAR-5 ovarian
# OVCAR-8 ovarian = tested on: OVCAR-8 ovarian
# RPMI-8226 leukemia = tested on: RPMI-8226 leukemia
# RXF-631 renal = tested on: RXF-631 renal
# SF-268 CNS = tested on: SF-268 CNS
# SF-295 CNS = tested on: SF-295 CNS
# SF-539 CNS = tested on: SF-539 CNS
# SK-MEL-2 melanoma = tested on: SK-MEL-2 melanoma
# SK-MEL-28 melanoma = tested on: SK-MEL-28 melanoma
# SK-OV-3 ovarian = tested on: SK-OV-3 ovarian
# SN12C renal = tested on: SN12C renal
# SNB-19 CNS = tested on: SNB-19 CNS
# SNB-75 CNS = tested on: SNB-75 CNS
# SR leukemia = tested on: SR leukemia
# SW-620 colon = tested on: SW-620 colon
# TK-10 renal = tested on: TK-10 renal
# U251 CNS = tested on: U251 CNS
# UACC-257 melanoma = tested on: UACC-257 melanoma
# UACC-62 melanoma = tested on: UACC-62 melanoma
# UO-31 renal = tested on: UO-31 renal
# XF 498 CNS = tested on: XF 498 CNS
# CCRF-CEM leukemia = tested on: CCRF-CEM leukemia
# EKVX NSCLC = tested on: EKVX NSCLC
# SNB-78 CNS = tested on: SNB-78 CNS
# A498 renal = tested on: A498 renal
# DMS 114 small cell lung = tested on: DMS 114 small cell lung
# HOP-18 NSCLC = tested on: HOP-18 NSCLC
# SK-MEL-5 melanoma = tested on: SK-MEL-5 melanoma
compound,measurement,setting,value
Clc1ccc(OCc2nnc3n2N=C(c2ccccc2)CS3)cc1,TGI,786-0 renal,30.2 µM
same,TGI,A549 NSCLC,35.1 µM
same,TGI,ACHN renal,37.5 µM
same,TGI,CAKI-1 renal,61.8 µM
same,TGI,COLO 205 colon,30.8 µM
same,TGI,DLD-1 colon,44 µM
same,TGI,DMS 273 small cell lung,30.5 µM
same,TGI,HCC-2998 colon,32.1 µM
same,TGI,HCT-116 colon,23.3 µM
same,TGI,HCT-15 colon,31 µM
same,TGI,HL-60(TB) leukemia,30.4 µM
same,TGI,HOP-62 NSCLC,34.8 µM
same,TGI,HOP-92 NSCLC,36.7 µM
same,TGI,HT29 colon,29.8 µM
same,TGI,IGROV1 ovarian,23.5 µM
same,TGI,K-562 leukemia,42.8 µM
same,TGI,KM12 colon,31.6 µM
same,TGI,KM20L2 colon,30.6 µM
same,TGI,LOX IMVI melanoma,30.8 µM
same,TGI,LXFL 529 NSCLC,40.7 µM
same,TGI,M14 melanoma,41 µM
same,TGI,M19-MEL melanoma,33.1 µM
same,TGI,MALME-3M melanoma,34.5 µM
same,TGI,MOLT-4 leukemia,62.5 µM
same,TGI,NCI-H226 lung,39.9 µM
same,TGI,NCI-H23 lung,25.2 µM
same,TGI,NCI-H460 lung,30.5 µM
same,TGI,NCI-H522 lung,36.5 µM
same,TGI,OVCAR-3 ovarian,32.4 µM
same,TGI,OVCAR-4 ovarian,30.6 µM
same,TGI,OVCAR-5 ovarian,36.1 µM
same,TGI,OVCAR-8 ovarian,27.3 µM
same,TGI,RPMI-8226 leukemia,32.7 µM
same,TGI,RXF-631 renal,31.1 µM
same,TGI,SF-268 CNS,39.9 µM
same,TGI,SF-295 CNS,36.7 µM
same,TGI,SF-539 CNS,33.3 µM
same,TGI,SK-MEL-2 melanoma,34.4 µM
same,TGI,SK-MEL-28 melanoma,38.2 µM
same,TGI,SK-OV-3 ovarian,44.7 µM
same,TGI,SN12C renal,25.8 µM
same,TGI,SNB-19 CNS,46.3 µM
same,TGI,SNB-75 CNS,85.7 µM
same,TGI,SR leukemia,29.5 µM
same,TGI,SW-620 colon,32.9 µM
same,TGI,TK-10 renal,53.4 µM
same,TGI,U251 CNS,31.9 µM
same,TGI,UACC-257 melanoma,29.3 µM
same,TGI,UACC-62 melanoma,28.4 µM
same,TGI,UO-31 renal,20.8 µM
same,TGI,XF 498 CNS,30.9 µM
CC(C)c1ccccc1NC(=O)CCC(=O)NN,TGI,786-0 renal,> 100 µM
same,TGI,A549 NSCLC,> 100 µM
same,TGI,ACHN renal,> 100 µM
same,TGI,CAKI-1 renal,> 100 µM
same,TGI,CCRF-CEM leukemia,> 100 µM
same,TGI,DLD-1 colon,> 100 µM
same,TGI,DMS 273 small cell lung,> 100 µM
same,TGI,EKVX NSCLC,> 100 µM
same,TGI,HCT-116 colon,> 100 µM
same,TGI,HCT-15 colon,> 100 µM
same,TGI,HL-60(TB) leukemia,> 100 µM
same,TGI,HOP-92 NSCLC,> 100 µM
same,TGI,IGROV1 ovarian,> 100 µM
same,TGI,K-562 leukemia,> 100 µM
same,TGI,KM12 colon,> 100 µM
same,TGI,KM20L2 colon,> 100 µM
same,TGI,LOX IMVI melanoma,> 100 µM
same,TGI,LXFL 529 NSCLC,> 100 µM
same,TGI,M14 melanoma,> 100 µM
same,TGI,M19-MEL melanoma,> 100 µM
same,TGI,MALME-3M melanoma,> 100 µM
same,TGI,MOLT-4 leukemia,> 100 µM
same,TGI,NCI-H226 lung,> 100 µM
same,TGI,NCI-H23 lung,> 100 µM
same,TGI,NCI-H522 lung,> 100 µM
same,TGI,OVCAR-3 ovarian,> 100 µM
same,TGI,RPMI-8226 leukemia,> 100 µM
same,TGI,RXF-631 renal,> 100 µM
same,TGI,SF-268 CNS,> 100 µM
same,TGI,SF-295 CNS,> 100 µM
same,TGI,SF-539 CNS,> 100 µM
same,TGI,SK-MEL-2 melanoma,> 100 µM
same,TGI,SK-MEL-28 melanoma,> 100 µM
same,TGI,SK-OV-3 ovarian,> 100 µM
same,TGI,SN12C renal,> 100 µM
same,TGI,SNB-19 CNS,> 100 µM
same,TGI,SNB-75 CNS,> 100 µM
same,TGI,SNB-78 CNS,> 100 µM
same,TGI,SR leukemia,> 100 µM
same,TGI,SW-620 colon,> 100 µM
same,TGI,TK-10 renal,> 100 µM
same,TGI,U251 CNS,> 100 µM
same,TGI,UACC-257 melanoma,> 100 µM
same,TGI,UACC-62 melanoma,> 100 µM
same,TGI,UO-31 renal,> 100 µM
same,TGI,XF 498 CNS,> 100 µM
Nc1ncnc2c1ncn2C1OC(CSC(F)F)C(O)C1O (stereo unspecified),TGI,786-0 renal,> 100 µM
same,TGI,A498 renal,> 100 µM
same,TGI,A549 NSCLC,> 100 µM
same,TGI,ACHN renal,> 100 µM
same,TGI,CAKI-1 renal,> 100 µM
same,TGI,CCRF-CEM leukemia,> 100 µM
same,TGI,COLO 205 colon,> 100 µM
same,TGI,DLD-1 colon,> 100 µM
same,TGI,DMS 114 small cell lung,> 100 µM
same,TGI,DMS 273 small cell lung,> 100 µM
same,TGI,EKVX NSCLC,> 100 µM
same,TGI,HCC-2998 colon,> 100 µM
same,TGI,HCT-116 colon,> 100 µM
same,TGI,HCT-15 colon,> 100 µM
same,TGI,HL-60(TB) leukemia,> 100 µM
same,TGI,HOP-18 NSCLC,> 100 µM
same,TGI,HOP-62 NSCLC,> 100 µM
same,TGI,HOP-92 NSCLC,> 100 µM
same,TGI,HT29 colon,> 100 µM
same,TGI,IGROV1 ovarian,> 100 µM
same,TGI,K-562 leukemia,> 100 µM
same,TGI,KM12 colon,> 100 µM
same,TGI,KM20L2 colon,> 100 µM
same,TGI,LOX IMVI melanoma,> 100 µM
same,TGI,LXFL 529 NSCLC,> 100 µM
same,TGI,M14 melanoma,> 100 µM
same,TGI,MALME-3M melanoma,> 100 µM
same,TGI,MOLT-4 leukemia,> 100 µM
same,TGI,NCI-H226 lung,> 100 µM
same,TGI,NCI-H23 lung,> 100 µM
same,TGI,NCI-H460 lung,> 100 µM
same,TGI,NCI-H522 lung,> 100 µM
same,TGI,OVCAR-3 ovarian,> 100 µM
same,TGI,OVCAR-4 ovarian,> 100 µM
same,TGI,OVCAR-5 ovarian,> 100 µM
same,TGI,OVCAR-8 ovarian,> 100 µM
same,TGI,RPMI-8226 leukemia,> 100 µM
same,TGI,RXF-631 renal,> 100 µM
same,TGI,SF-268 CNS,> 100 µM
same,TGI,SF-295 CNS,> 100 µM
same,TGI,SF-539 CNS,> 100 µM
same,TGI,SK-MEL-2 melanoma,> 100 µM
same,TGI,SK-MEL-28 melanoma,> 100 µM
same,TGI,SK-MEL-5 melanoma,> 100 µM
same,TGI,SK-OV-3 ovarian,> 100 µM
same,TGI,SN12C renal,> 100 µM
same,TGI,SNB-75 CNS,> 100 µM
same,TGI,SNB-78 CNS,> 100 µM
same,TGI,SW-620 colon,> 100 µM
same,TGI,TK-10 renal,> 100 µM
same,TGI,U251 CNS,> 100 µM
same,TGI,UACC-257 melanoma,> 100 µM
same,TGI,UACC-62 melanoma,> 100 µM
same,TGI,UO-31 renal,> 100 µM
